Experiments:
[1] = Acute toxicity after a single oral administration; conditions: mouse, in vivo, mice, read-out: akute Toxizität
Protocol: Die akute Toxizität (nach einmaliger oraler Verabreichung an Mäusen) beträgt mehr als 5000 mg/kg für die Produkte der Beispiele 3d, 3h, 3i, 3l, 4a und 10a, b, e und f.

Schweinepankreaslipase = target: T1, Schweinepankreaslipase (Sus scrofa, UniProt P00591); assay: Inhibition of pancreatic lipase (titrimetric measurement of oleic acid released from triolein); format: biochemical, Schwein; conditions: substrate triolein emulsion, pH 8, NaOH consumption over 10 min, 1-3 µg lipase; concentration giving half-maximal inhibition of lipase activity; read-out: IC₅₀ (converted)
T1 sequence (P00591 1-450): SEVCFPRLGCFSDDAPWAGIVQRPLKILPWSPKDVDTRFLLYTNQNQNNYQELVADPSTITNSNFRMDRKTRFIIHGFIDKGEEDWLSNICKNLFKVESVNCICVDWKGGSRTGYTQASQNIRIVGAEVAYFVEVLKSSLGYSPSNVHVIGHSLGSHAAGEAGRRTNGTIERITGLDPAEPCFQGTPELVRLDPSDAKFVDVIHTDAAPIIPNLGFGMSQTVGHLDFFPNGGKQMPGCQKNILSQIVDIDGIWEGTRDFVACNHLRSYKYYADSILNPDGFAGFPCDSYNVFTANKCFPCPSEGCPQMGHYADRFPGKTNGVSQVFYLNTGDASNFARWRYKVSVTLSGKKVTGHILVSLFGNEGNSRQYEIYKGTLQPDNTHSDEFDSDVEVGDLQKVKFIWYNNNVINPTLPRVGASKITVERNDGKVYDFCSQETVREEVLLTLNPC
Protocol: Die Hemmung der Pankreaslipase durch die Oxetanone der Formel I kann experimentell gezeigt werden, indem man die bei der Spaltung von Triolein durch Schweinepankreaslipase freigesetzte Oelsäure titrimetrisch erfasst. Zu einer Emulsion, welche 1 mM Taurodeoxycholat, 9 mM Taurocholat, 0,1 mM Cholesterin, 1 mM Eilezithin, 15 mg/ml BSA, 2 mM Tris-HCl, 100 mM Natriumchlorid, 1 mM Calciumchlorid und das Substrat Triolein enthält, gibt man die in Aethanol oder Dimethylsulfoxid (10% des Emulsionsvolumens) gelöste Verbindung der Formel I und startet die Reaktion durch Zugabe von 1-3 µg Schweinepankreaslipase. Das pH wird während der Reaktion durch Zugabe von Natronlauge bei 8 gehalten. Aus dem während 10 Minuten ermittelten Verbrauch an Natronlauge wird die IC₅₀ berechnet. Die IC₅₀ ist diejenige Konzentration, bei der die Lipaseaktivität halbmaximal gehemmt wird. Die nachfolgende Tabelle enthält die für die Verbindungen der Formel I ermittelten IC₅₀-Werte in µg/ml.

| IC50 (Schweinepankreaslipase) | Compound | LD50 [1] |
| --- | --- | --- |
| 100 nM | CCCCCCCCCCCCCCCCC[C@@H](C[C@@H]1OC(=O)[C@H]1CC)OC(=O)C(CCC)C(N)=O (stereo partly drawn) [Beispiel 2e, (S)-1-[[(2S,3S)-3-Aethyl-4-oxo-2-oxetanyl]-methyl]octadecyl-(RS)-2-carbamoylvalerat] | – |
| 49 nM | CCCCCCCCCCCCCCCCC[C@@H](C[C@@H]1OC(=O)[C@H]1CC)OC(=O)C(C(N)=O)C(C)C (single isomer, unassigned) [Beispiel 1b] | – |
| 894 nM | CCCCCCCCCCCCCCCCC[C@@H](C[C@@H]1OC(=O)[C@H]1CC)OC(=O)C1(C(N)=O)OCCO1 [Beispiel 2f, (S)-1-[[(2S,3S)-3-Aethyl-4-oxo-2-oxetanyl]-methyl]octadecyl-2-carbamoyl-1,3-dioxolan-2-carboxylat] | – |
| 64.9 nM | CCCCCCCCCCCCCCCCC[C@@H](C[C@@H]1OC(=O)[C@H]1CC)OC(=O)C(C(N)=O)C(C)(C)C (single isomer, unassigned) [Beispiel 37] | – |
| 342 nM | CCCCCCCCCCC[C@@H](C[C@@H]1OC(=O)[C@H]1CCCCCC)OC(=O)C(CC)C(N)=O (stereo partly drawn) [Beispiel 3j, (S)-1-[[(2S,3S)-3-Hexyl-4-oxo-2-oxetanyl]methyl]dodecyl-(RS)-2-äthylmalonamat] | – |
| 25.7 nM | CCCCC/C=C\C/C=C\CCCCCCC[C@@H](C[C@@H]1OC(=O)[C@H]1CC)OC(=O)C(C(N)=O)C(C)C (single isomer, unassigned) [Beispiel 2g2] | – |
| 3110 nM | CCCCCCCCCCC[C@@H](C[C@@H]1OC(=O)[C@H]1CCCCCC)OC(=O)CC(=O)NC [Beispiel 3e, (S)-1-[[(2S,3S)-3-Hexyl-4-oxo-2-oxetanyl]methyl]dodecyl -N-methylmalonamat] | – |
| 948 nM | CCCCCCCCCCCCCCCCC[C@@H](C[C@@H]1OC(=O)[C@H]1CC)OC(=O)CC(=O)N(C)C [Beispiel 10d, (S)-1-[[(2S,3S)-3-Aethyl-4-oxo-2-oxetanyl]methyl]octadecyl-N,N-dimethylmalonamat] | – |
| 579 nM | CCCCCCCCCCC[C@@H](C[C@@H]1OC(=O)[C@H]1CCCCCC)OC(=O)C1(C(N)=O)CCCCC1 [Beispiel 3g, (S)-1-[[(2S,3S)-3-Hexyl-4-oxo-2-oxetanyl]methyl]dodecyl-1-carbamoylcydohexancarboxylat] | – |
| 242 nM | CCCCCCCCCCC[C@@H](C[C@@H]1OC(=O)[C@H]1CCCCCC)OC(=O)C(CCCC)C(N)=O (mixture of isomers) [Beispiel 3k, (S)-1-[[(2S,3S)-3-Hexyl-4-oxo-2-oxetanyl]methyl]dodecyl-(RS)-2-butylmalonamat] | – |
| 567 nM | CCCCCCCCCCCCCCCCC[C@@H](C[C@@H]1OC(=O)[C@H]1CC)OC(=O)[C@H]1CCC(=O)N1 [Beispiel 78c, 5-Oxo-D-prolin-(S)-1-[[(2S,3S)-3-äthyl-4-oxo-2-oxetanyl]methyl]octadecyl-ester] | – |
| 131 nM | CCCCCCCCCCC[C@@H](C[C@@H]1OC(=O)[C@H]1CCCCCC)OC(=O)C(C(N)=O)C(C)C (single isomer, unassigned) [Beispiel 2b] | – |
| 103 nM | CCCCC/C=C\C/C=C\CCCCCCC[C@@H](C[C@@H]1OC(=O)[C@H]1CC)OC(=O)C(C(N)=O)C(C)C (single isomer, unassigned) [Beispiel 2g1] | – |
| 249 nM | CCCCCCCCCCC[C@@H](C[C@@H]1OC(=O)[C@H]1CCCCCC)OC(=O)C(CCC)C(N)=O (mixture of isomers) [Beispiel 2d, (S)-1-[[(2S,3S)-3-Hexyl-4-oxo-2-oxetanyl]methyl]-dodecyl-(RS) -2-carbamoylvalerat] | – |
| 162 nM | CCCCCCCCCCC[C@@H](C[C@H]1OC(=O)[C@@H]1Cc1ccccc1)OC(=O)C(C(N)=O)C(C)C (single isomer, unassigned) [Beispiel 7b] | – |
| 62.8 nM | CCCCCCCCCCCCCCCCC[C@@H](C[C@@H]1OC(=O)[C@H]1CC)OC(=O)C(C(N)=O)C(C)C (single isomer, unassigned) [Beispiel 1a] | – |
| 88.7 nM | CCCCCCCCCCC[C@@H](C[C@@H]1OC(=O)[C@H]1CCCCCC)OC(=O)C(Cc1ccccc1)C(N)=O (stereo partly drawn) [Beispiel 45, (S)-1-[[(2S,3S)-3-Hexyl-4-oxo-2-oxetanyl]methyl]dodecyl-(RS)-2-benzylmalonomat] | – |
| 103 nM | CCCCCCCCCCCCCCCCC[C@@H](C[C@@H]1OC(=O)[C@H]1CC)OC(=O)[C@@H]1CCC(=O)N1 [Beispiel 78d, 5-Oxo-L-prolin-(S)-1-[[(2S,3S)-3-äthyl-4-oxetanyl]methyl]octadecyl-ester] | – |
| 230 nM | CCCCCCCCCCCCCCCCC[C@@H](C[C@@H]1OC(=O)[C@H]1CC)OC(=O)C1(C(N)=O)CCCC1 [Beispiel 43, (S)-1-[[(2S,3S)-3-Aethyl-4-oxo-2-oxetanyl]methyl]octadecyl-1-carbamoylcyclopentancarboxylat] | – |
| 887 nM | CCCCCCCCCCC[C@@H](C[C@@H]1OC(=O)[C@H]1CCCCCC)OC(=O)CC(N)=O [Beispiel 3c, 2-Carbamoylessigsäure-(S)-1-[[(2S,3S)-3-hexyl-4-oxo-2-oxetanyl]methyl]dodecylester] | – |
| 701 nM | CCCCCCCCCCC[C@@H](C[C@@H]1OC(=O)[C@H]1CCCCCC)OC(=O)CCSCCC(N)=O [Beispiel 51, (S)-1-[[(2S,3S)-3-Hexyl-4-oxo-2-oxetanyl]methyl]dodecyl-3-[(2-carbamoyläthyl)thio]propionat] | – |
| 167 nM | CCCCCCCCCCC[C@@H](C[C@@H]1OC(=O)[C@H]1CCCCCC)OC(=O)C(CC(C)C)C(N)=O (mixture of isomers) [Beispiel 3f, (S)-1-[[(2S,3S)-3-Hexyl-4-oxo-2-oxetanyl]methyl]dodecyl-(RS)-2-carbamoyl-4-methylvalerat] | – |
| 208 nM | CCCCCCCCCCCCCCCCC[C@@H](C[C@@H]1OC(=O)[C@H]1CC)OC(=O)CC(=O)NC [Beispiel 10c, (S)-1-[[(2S,3S)-3-Aethyl-4-oxo-2-oxetanyl]methyl]octadecyl-N-methylmalonamat] | – |
| 112 nM | CCCCCCCCCCC[C@@H](CC1OC(=O)C1SCCCCC)OC(=O)C(C(N)=O)C(C)C (stereo partly drawn) [Beispiel 6b, (S)-1-[[(2S,3S oder 2R,3R)-4-Oxo-3-pentylthio-2-oxetanyl]methyl]-dodecyl-[S:R oder R:S(2:1)]-2-isopropylmalonamat] | – |

| Compound | IC50 (Schweinepankreaslipase) | LD50 [1] |
| --- | --- | --- |
| CCCCCCCCCCCCCCCCC[C@@H](C[C@@H]1OC(=O)[C@H]1CC)OC(=O)CCC(N)=O [Beispiel 10f, (S)-1-[[(2S,3S)-3-Aethyl-4-oxo-2-oxetanyl]methyl]octadecyl-succinamat] | 664 nM | > 5000 mg/kg |
| CCCCCCCCCCC[C@@H](C[C@@H]1OC(=O)[C@H]1CCCCCC)OC(=O)C(N)=O [Beispiel 3d, (S)-1-[[(2S,3S)-3-Hexyl-4-oxo-2-oxetanyl]methyl]dodecyloxamat] | 2110 nM | > 5000 mg/kg |
| CCCCCCCCCCCCCCCCC[C@@H](C[C@@H]1OC(=O)[C@H]1CC)OC(=O)CC(N)=O [Beispiel 10b, (S)-1-[[(2S,3S)-3-Aethyl-4-oxo-2-oxetanyl]methyl]octadecylmalonamat] | 89.8 nM | > 5000 mg/kg |
| CCCCCCCCCCCCCCCCC[C@@H](C[C@@H]1OC(=O)[C@H]1CC)OC(=O)C1(C(N)=O)CCCCC1 [Beispiel 4a, (S)-1-[[(2S,3S)-3-Aethyl-4-oxo-2-oxetanyl]methyl]octadecyl-1-carbamoylcyclohexancarboxylat] | 299 nM | > 5000 mg/kg |
| CCCCCCCCCCC[C@@H](C[C@@H]1OC(=O)[C@H]1CCCCCC)OC(=O)C(C)(C)C(N)=O [Beispiel 3h, (S)-1-[[(2S,3S)-3-Hexyl-4-oxo-2-oxetanyl]methyl]dodecyl-2,2-dimethylmalonamat] | 4490 nM | > 5000 mg/kg |
| CCCCCCCCCCC[C@@H](C[C@@H]1OC(=O)[C@H]1CCCCCC)OC(=O)C(CC)(CC)C(N)=O [Beispiel 3l, (S)-1-[[(2S,3S)-3-Hexyl-4-oxo-2-oxetanyl]methyl]dodecyl-2,2-diäthylmalonamat] | 1570 nM | > 5000 mg/kg |
| CCCCCCCCCCC[C@@H](C[C@@H]1OC(=O)[C@H]1CCCCCC)OC(=O)C(C)C(N)=O (mixture of isomers) [Beispiel 3i, (S)-1-[[(2S,3S)-3-Hexyl-4-oxo-2-oxetanyl]methyl]dodecyl-(RS)-2-methylmalonamat] | 926 nM | > 5000 mg/kg |
| CCCCCCCCCCCCCCCCC[C@@H](C[C@@H]1OC(=O)[C@H]1CC)OC(=O)C(C)C(N)=O (stereo partly drawn) [Beispiel 10e, (S)-1-[[(2S,3S)-3-Aethyl-4-oxo-2-oxetanyl]methyl]octadecyl-(RS)-2-methylmalonamat] | 56 nM | > 5000 mg/kg |
| CCCCCCCCCCCCCCCCC[C@@H](C[C@@H]1OC(=O)[C@H]1CC)OC(=O)C(N)=O [Beispiel 10a, (S)-1-[[(2S,3S)-3-Aethyl-4-oxo-2-oxetanyl]methyl]octadecyloxamat] | 183 nM | > 5000 mg/kg |

— patent EP0444482B1, “Oxetanones” (F. HOFFMANN-LA ROCHE AG, priority 1990, dated 1991)
